Patent US20230241102A1, “FORMULATIONS OF CALCIUM AND PHOSPHATE FOR ORAL INFLAMMATION” (Bausch Health Companies Inc., priority 2014, published 2023)

Tests used:
[1] = pH of the resulting liquid (pH meter Mettler Toledo Seven Multi, USP<791>); details: for pH trial 1 / pH trial 2: Table 2, 30 ml tap water, room temperature
Protocol: (§1) To evaluate dissolution, the components were weighed and put in centrifuge tubes containing 30 ml of tap water at room temperature. The tubes were gently stirred by hand (up and down movements) for 30 seconds to 1 minute. The dispersions were then assessed visually for turbidity and presence of particles in suspension or precipitate. pH was also assessed using pH meter Mettler Toledo Seven Multi and following USP<791>method.
(§2) Visual solubility tests were done in duplicate using 3 different calcium sources. The quantity of material was adjusted in order to maintain a consistent calcium content from each different salt.
The following trials were performed in order to assess visual solubility and pH levels of various formulations.

[2] = Visual solubility test: components mixed in 30 ml tap water, assessed visually for turbidity, particles in suspension or precipitate; details: Table 2, calcium sources at consistent calcium content, room temperature, same observation for both trials
Protocol: Table 1 provides a description of the visual solubility tests performed using various components (including a commercial sample), with the quantities of each product weighed, and visual observations after the components were mixed in water.
as §1, §2
The following trials were performed in order to assess visual solubility and pH levels of various formulations. […] All lots were prepared by dry blending by hand of ingredients using spatula.

Compound	pH trial 1 [1]	pH trial 2 [1]	Observations [2]	pH ([1]; Tables 3-5, calcium salt with dibasic and monobasic sodium phosphate in 30 ml water)
O.O.[Ca+2].[Cl-].[Cl-] [Calcium Chloride dihydrate]	7.65	7.67		
CC(O)C(=O)[O-].O=C([O-])[C@H](O)[C@@H](O)[C@H](O)[C@H](O)CO.[Ca+2] [Calcium lactate gluconate]	7.73	7.74	sufficiently soluble	
Calcium glycerophosphate	8.08	8.07		higher pH
